The assay relates to MV-4-11 cells. Briefly: Gene expression microarray analysis (Affymetrix PrimeView) and GSEA. The format is cell-based, human. Also noted: RFU PODN (11730768_x_at) / Fold change /veh PODN (11730768_x_at) / RFU LINC00158 (11744669_a_at) / Fold change /veh LINC00158 (11744669_a_at) / RFU DUSP10 (11751237_a_at) / Fold change /veh DUSP10 (11751237_a_at) / RFU ID3 (11757404_x_at) / Fold change /veh ID3 (11757404_x_at) / RFU PLEKHG5 (11737974_s_at) / Fold change /veh PLEKHG5 (11737974_s_at) / RFU LRRC4B (11730491_at) / Fold change /veh LRRC4B (11730491_at) / RFU GIMAP4 (11747438_a_at) / Fold change /veh GIMAP4 (11747438_a_at) / RFU KRT8 (11758183_x_at) / Fold change /veh KRT8 (11758183_x_at) / RFU CNN1 (11734310_a_at) / Fold change /veh CNN1 (11734310_a_at) / RFU VPS37D (11726825_at) / Fold change /veh VPS37D (11726825_at) / RFU C10orf10 (11716522_x_at) / Fold change /veh C10orf10 (11716522_x_at) / RFU KIR2DL2 /// KIR2DL4 /// KIR2DL5A /// KIR2DL5B /// KIR2DS1 /// KIR2DS2 /// KIR2DS3 /// KIR2DS4 /// KIR3DL3 /// KIR3DL3 /// KIR3DS1 (11738374_at) / Fold change /veh KIR2DL2 /// KIR2DL4 /// KIR2DL5A /// KIR2DL5B /// KIR2DS1 /// KIR2DS2 /// KIR2DS3 /// KIR2DS4 /// KIR3DL3 /// KIR3DL3 /// KIR3DS1 (11738374_at) / RFU C1QL1 (11718748_at) / Fold change /veh C1QL1 (11718748_at) / RFU TMPRSS4 (11747572_a_at) / Fold change /veh TMPRSS4 (11747572_a_at) / RFU HAMP (11756126_x_at) / Fold change /veh HAMP (11756126_x_at) / RFU RNFT2 (11725882_a_at) / Fold change /veh RNFT2 (11725882_a_at) / RFU NR4A2 (11747474_a_at) / Fold change /veh NR4A2 (11747474_a_at) / RFU ABCC12 (11746883_a_at) / Fold change /veh ABCC12 (11746883_a_at) / RFU TMEM136 (11760407_x_at) / Fold change /veh TMEM136 (11760407_x_at) / RFU CLDN22 /// WWC2 (11732394_at) / Fold change /veh CLDN22 /// WWC2 (11732394_at) / RFU HLA-DPB1 (11760878_x_at) / Fold change /veh HLA-DPB1 (11760878_x_at) / RFU SPINT1 (11716480_a_at) / Fold change /veh SPINT1 (11716480_a_at) / RFU GAP43 (11754022_s_at) / Fold change /veh GAP43 (11754022_s_at) / RFU A4GNT (11735810_at) / Fold change /veh A4GNT (11735810_at) / RFU PRB3 (11715151_x_at) / Fold change /veh PRB3 (11715151_x_at) / RFU TUBB4B (11761932_at) / Fold change /veh TUBB4B (11761932_at) / RFU CAPN14 (11732068_a_at) / Fold change /veh CAPN14 (11732068_a_at) / RFU TMCC2 (11721928_a_at) / Fold change /veh TMCC2 (11721928_a_at) / RFU IRGQ (11745062_a_at) / Fold change /veh IRGQ (11745062_a_at) / RFU FAM174B (11720279_a_at) / Fold change /veh FAM174B (11720279_a_at) / RFU TMPRSS4 (11748680_a_at) / Fold change /veh TMPRSS4 (11748680_a_at) / RFU FAM212B (11763350_a_at) / Fold change /veh FAM212B (11763350_a_at) / RFU PLEKHG5 (11743358_a_at) / Fold change /veh PLEKHG5 (11743358_a_at) / RFU ZSCAN30 (11745921_a_at) / Fold change /veh ZSCAN30 (11745921_a_at) / RFU CMKLR1 (11741424_a_at) / Fold change /veh CMKLR1 (11741424_a_at) / RFU LOC101060620 /// MAPK8IP1 (11723275_at) / Fold change /veh LOC101060620 /// MAPK8IP1 (11723275_at) / RFU SPTSSB (11747773_x_at) / Fold change /veh SPTSSB (11747773_x_at) / RFU PRSS12 (11739890_at) / Fold change /veh PRSS12 (11739890_at) / RFU BIN1 (11741810_x_at) / Fold change /veh BIN1 (11741810_x_at) / RFU WNT11 (11732464_a_at) / Fold change /veh WNT11 (11732464_a_at) / RFU C10orf10 (11716521_a_at) / Fold change /veh C10orf10 (11716521_a_at) / RFU C5orf56 (11738089_at) / Fold change /veh C5orf56 (11738089_at) / RFU CYB561 (11721691_x_at) / Fold change /veh CYB561 (11721691_x_at) / RFU ANKRD19P (11752326_a_at) / Fold change /veh ANKRD19P (11752326_a_at) / RFU OR2T12 /// OR2T33 /// OR2T8 (11738714_s_at) / Fold change /veh OR2T12 /// OR2T33 /// OR2T8 (11738714_s_at) / RFU VCAN (11748164_a_at) / Fold change /veh VCAN (11748164_a_at) / RFU JSRP1 (11732532_at) / Fold change /veh JSRP1 (11732532_at) / RFU KRTAP10-11 (11738290_x_at) / Fold change /veh KRTAP10-11 (11738290_x_at) / RFU MYO3A (11730013_a_at) / Fold change /veh MYO3A (11730013_a_at) / RFU EBF3 (11725865_a_at) / Fold change /veh EBF3 (11725865_a_at) / RFU CAMK2N1 (11719241_x_at) / Fold change /veh CAMK2N1 (11719241_x_at) / RFU C5orf56 (11738088_a_at) / Fold change /veh C5orf56 (11738088_a_at) / RFU OLFML3 (11715873_a_at) / Fold change /veh OLFML3 (11715873_a_at) / RFU LOC100653217 /// NTM (11731650_a_at) / Fold change /veh LOC100653217 /// NTM (11731650_a_at) / RFU MAPK11 (11762145_a_at) / Fold change /veh MAPK11 (11762145_a_at) / RFU FIZ1 (11724087_x_at) / Fold change /veh FIZ1 (11724087_x_at) / RFU OASL (11726364_x_at) / Fold change /veh OASL (11726364_x_at) / RFU SOX15 (11748057_x_at) / Fold change /veh SOX15 (11748057_x_at) / RFU CD79A (11719716_a_at) / Fold change /veh CD79A (11719716_a_at) / RFU HIST1H1D (11736915_at) / Fold change /veh HIST1H1D (11736915_at) / RFU CASKIN2 (11723855_a_at) / Fold change /veh CASKIN2 (11723855_a_at) / RFU LOC730098 (11760151_x_at) / Fold change /veh LOC730098 (11760151_x_at) / RFU OR4N2 (11742367_at) / Fold change /veh OR4N2 (11742367_at) / RFU PRRT2 (11749266_a_at) / Fold change /veh PRRT2 (11749266_a_at) / RFU SNX32 (11753110_a_at) / Fold change /veh SNX32 (11753110_a_at) / RFU CDHR5 (11726645_a_at) / Fold change /veh CDHR5 (11726645_a_at) / RFU RCAN1 (11760418_a_at) / Fold change /veh RCAN1 (11760418_a_at) / RFU FAM167A (11723789_a_at) / Fold change /veh FAM167A (11723789_a_at) / RFU FAM26E (11764081_at) / Fold change /veh FAM26E (11764081_at) / RFU ISYNA1 (11749810_s_at) / Fold change /veh ISYNA1 (11749810_s_at) / RFU ACY1 (11761880_at) / Fold change /veh ACY1 (11761880_at) / RFU 11764098_at / Fold change /veh 11764098_at / RFU SAMD14 (11745864_x_at) / Fold change /veh SAMD14 (11745864_x_at) / RFU NPB (11741838_a_at) / Fold change /veh NPB (11741838_a_at) / RFU TMPRSS6 (11731388_a_at) / Fold change /veh TMPRSS6 (11731388_a_at) / RFU KRTAP10-2 (11738614_at) / Fold change /veh KRTAP10-2 (11738614_at) / RFU ARHGAP8 /// PRR5-ARHGAP8 (11727945_x_at) / Fold change /veh ARHGAP8 /// PRR5-ARHGAP8 (11727945_x_at) / RFU KRTAP5-7 /// NADSYN1 (11734609_at) / Fold change /veh KRTAP5-7 /// NADSYN1 (11734609_at) / RFU RASL12 (11751679_a_at) / Fold change /veh RASL12 (11751679_a_at) / RFU CDKN2B (11736163_a_at) / Fold change /veh CDKN2B (11736163_a_at) / RFU PRF1 (11729649_at) / Fold change /veh PRF1 (11729649_at) / RFU, ZNF638 /// ZNF638-IT1 / Fold change vs veh, ZNF638 /// ZNF638-IT1 / RFU, PANK3 / Fold change vs veh, PANK3 / RFU, SH3YL1 / Fold change vs veh, SH3YL1 / RFU, ZEB2 / Fold change vs veh, ZEB2 / RFU, NRIP1 / Fold change vs veh, NRIP1 / RFU, PTTG1IP / Fold change vs veh, PTTG1IP / RFU, CAPN2 / Fold change vs veh, CAPN2 / RFU, MED14 / Fold change vs veh, MED14 / RFU, SNORA58 / Fold change vs veh, SNORA58 / RFU, C1orf63 / Fold change vs veh, C1orf63 / RFU, LRRFIP1 / Fold change vs veh, LRRFIP1 / RFU, NDUFAF7 / Fold change vs veh, NDUFAF7 / RFU, SLC12A2 / Fold change vs veh, SLC12A2 / RFU, IBTK / Fold change vs veh, IBTK / RFU, ESF1 / Fold change vs veh, ESF1 / Fold change vs veh, TMEM50B / RFU, TAOK1 / Fold change vs veh, TAOK1 / RFU, ACBD3 / Fold change vs veh, ACBD3 / RFU, TMA16 / Fold change vs veh, TMA16 / RFU, RWDD3 / Fold change vs veh, RWDD3 / RFU, BCAT1 / Fold change vs veh, BCAT1 / RFU, EDEM3 / Fold change vs veh, EDEM3 / RFU, TMEM33 / Fold change vs veh, TMEM33 / RFU, WDR75 / Fold change vs veh, WDR75 / RFU, AHCTF1 / Fold change vs veh, AHCTF1 / RFU, TFRC / Fold change vs veh, TFRC / RFU, ZDHHC17 / Fold change vs veh, ZDHHC17 / RFU, NOM1 / Fold change vs veh, NOM1 / RFU, ARL8B / Fold change vs veh, ARL8B / RFU, ZBTB11 / Fold change vs veh, ZBTB11 / RFU, TAMM41 / Fold change vs veh, TAMM41 / RFU, KIAA1704 /// LOC100996395 / Fold change vs veh, KIAA1704 /// LOC100996395 / RFU, ING1 / Fold change vs veh, ING1 / RFU, TRMT61B / Fold change vs veh, TRMT61B / RFU, FUBP3 / Fold change vs veh, FUBP3 / RFU, TP53 / Fold change vs veh, TP53 / RFU, TNKS2 / Fold change vs veh, TNKS2 / RFU, ZFP14 / Fold change vs veh, ZFP14 / RFU, ACTR2 / Fold change vs veh, ACTR2 / RFU, PPP3R1 / Fold change vs veh, PPP3R1 / RFU, PIK3R1 / Fold change vs veh, PIK3R1 / RFU, HNRNPA1 / Fold change vs veh, HNRNPA1 / RFU, RNF170 / Fold change vs veh, RNF170 / RFU, ZNF28 / Fold change vs veh, ZNF28 / RFU, RNGTT / Fold change vs veh, RNGTT / RFU, OGT / Fold change vs veh, OGT / RFU, BRD1 / Fold change vs veh, BRD1 / RFU, MARS / Fold change vs veh, MARS / RFU, ZNF655 / Fold change vs veh, ZNF655 / RFU, FAHD1 / Fold change vs veh, FAHD1 / RFU, BDP1 / Fold change vs veh, BDP1 / RFU, LRRCC1 / Fold change vs veh, LRRCC1 / RFU, ARID1A / Fold change vs veh, ARID1A / RFU, ZNF146 / Fold change vs veh, ZNF146 / RFU, ZNF330 / Fold change vs veh, ZNF330 / RFU, GPN3 / Fold change vs veh, GPN3 / RFU, C9orf123 / Fold change vs veh, C9orf123 / RFU, N4BP2L2 / Fold change vs veh, N4BP2L2 / RFU, ARFIP1 / Fold change vs veh, ARFIP1 / RFU, FAM179B / Fold change vs veh, FAM179B / RFU, BCL10 / Fold change vs veh, BCL10 / RFU, UHRF1BP1L / Fold change vs veh, UHRF1BP1L / RFU, BET1 / Fold change vs veh, BET1 / RFU, CNOT2 / Fold change vs veh, CNOT2 / RFU, ZNF268 / Fold change vs veh, ZNF268 / Fold change vs veh, ZNF507 / RFU, DGCR2 / Fold change vs veh, DGCR2 / RFU, WDSUB1 / Fold change vs veh, WDSUB1 / Fold change vs veh, HSP90B1 /// MIR3652 / RFU, ADSS / Fold change vs veh, ADSS / RFU, GK / Fold change vs veh, GK / RFU, ZNF148 / Fold change vs veh, ZNF148 / RFU, TAF9 / Fold change vs veh, TAF9 / RFU, SLC1A5 / Fold change vs veh, SLC1A5 / RFU, SLMO2 / Fold change vs veh, SLMO2 / RFU, ABCC4 / Fold change vs veh, ABCC4 / RFU, LOC101060439 /// RAP1B / Fold change vs veh, LOC101060439 /// RAP1B / RFU, RFX7 / Fold change vs veh, RFX7 / RFU, GTPBP10 / Fold change vs veh, GTPBP10 / RFU, CNEP1R1 / Fold change vs veh, CNEP1R1 / RFU, BIVM-ERCC5 /// ERCC5 / Fold change vs veh, BIVM-ERCC5 /// ERCC5 / RFU, ILF3 / Fold change vs veh, ILF3 / RFU 11762660_at / Fold change /veh 11762660_at / RFU VCAN (11757783_s_at) / Fold change /veh VCAN (11757783_s_at) / RFU DDX43 (11728927_at) / Fold change /veh DDX43 (11728927_at) / RFU KRT8 (11758188_x_at) / Fold change /veh KRT8 (11758188_x_at) / RFU NKD1 (11759106_at) / Fold change /veh NKD1 (11759106_at) / RFU SRD5A1 (11742802_a_at) / Fold change /veh SRD5A1 (11742802_a_at) / RFU TPSAB1 /// TPSB2 (11721975_s_at) / Fold change /veh TPSAB1 /// TPSB2 (11721975_s_at) / RFU GSTM3 (11746129_a_at) / Fold change /veh GSTM3 (11746129_a_at) / RFU IL23R (11737362_x_at) / Fold change /veh IL23R (11737362_x_at) / RFU TMEM51 (11727254_a_at) / Fold change /veh TMEM51 (11727254_a_at) / RFU PIWIL2 (11732686_x_at) / Fold change /veh PIWIL2 (11732686_x_at) / RFU ORM1 (11744905_x_at) / Fold change /veh ORM1 (11744905_x_at) / RFU CCDC152 (11743942_at) / Fold change /veh CCDC152 (11743942_at) / RFU ECM1 (11717891_a_at) / Fold change /veh ECM1 (11717891_a_at) / RFU IL23R (11748794_a_at) / Fold change /veh IL23R (11748794_a_at) / RFU TNFAIP8L3 (11732012_x_at) / Fold change /veh TNFAIP8L3 (11732012_x_at) / RFU MBOAT4 (11741988_at) / Fold change /veh MBOAT4 (11741988_at) / RFU 11764193_at / Fold change /veh 11764193_at / RFU TMEM53 (11763286_at) / Fold change /veh TMEM53 (11763286_at) / RFU MAGEB2 (11727129_at) / Fold change /veh MAGEB2 (11727129_at) / RFU TMEM200A (11744735_a_at) / Fold change /veh TMEM200A (11744735_a_at) / RFU CCDC152 (11751479_a_at) / Fold change /veh CCDC152 (11751479_a_at) / RFU FAM211A (11726209_a_at) / Fold change /veh FAM211A (11726209_a_at) / RFU RGS16 (11746705_a_at) / Fold change /veh RGS16 (11746705_a_at) / RFU VCAN (11755009_s_at) / Fold change /veh VCAN (11755009_s_at) / RFU RHOB (11743442_s_at) / Fold change /veh RHOB (11743442_s_at) / RFU RGS16 (11720943_a_at) / Fold change /veh RGS16 (11720943_a_at) / RFU RGS16 (11720944_at) / Fold change /veh RGS16 (11720944_at) / RFU, VPS4B / Fold change vs veh, VPS4B / RFU, CREB1 / Fold change vs veh, CREB1 / RFU, DNAJC13 / Fold change vs veh, DNAJC13 / RFU, GNAQ / Fold change vs veh, GNAQ / RFU, CDK5R1 / Fold change vs veh, CDK5R1 / RFU, ZRANB3 / Fold change vs veh, ZRANB3 / RFU, CUL4A / Fold change vs veh, CUL4A / RFU, CCNY / Fold change vs veh, CCNY / RFU, UFL1 / Fold change vs veh, UFL1 / RFU, COG3 / Fold change vs veh, COG3 / RFU, DIAPH2 / Fold change vs veh, DIAPH2 / RFU, SKA2 / Fold change vs veh, SKA2 / RFU, AFF3 / Fold change vs veh, AFF3 / RFU, LMF1 / Fold change vs veh, LMF1 / RFU, IPO11 / Fold change vs veh, IPO11 / RFU, DFFB / Fold change vs veh, DFFB / RFU, FOXP1 / Fold change vs veh, FOXP1 / RFU, CARD8 / Fold change vs veh, CARD8 / RFU, STRN3 / Fold change vs veh, STRN3 / RFU, ADK / Fold change vs veh, ADK / RFU, RASSF2 / Fold change vs veh, RASSF2 / RFU, WIPF1 / Fold change vs veh, WIPF1 / RFU, LARP1B / Fold change vs veh, LARP1B / RFU, RASA1 / Fold change vs veh, RASA1 / RFU, RB1 / Fold change vs veh, RB1 / RFU, PPFIA1 / Fold change vs veh, PPFIA1 / RFU, MAT2A / Fold change vs veh, MAT2A / RFU, CCT5 / Fold change vs veh, CCT5 / RFU, WDR92 / Fold change vs veh, WDR92 / RFU, CUX1 / Fold change vs veh, CUX1 / RFU, TTC7A / Fold change vs veh, TTC7A / RFU, TMEM135 / Fold change vs veh, TMEM135 / RFU, DEPTOR / Fold change vs veh, DEPTOR / RFU, CPM / Fold change vs veh, CPM / RFU, DNAJB6 / Fold change vs veh, DNAJB6 / RFU, CACNA2D3 / Fold change vs veh, CACNA2D3 / RFU, DTX4 / Fold change vs veh, DTX4 / RFU, TFCP2 / Fold change vs veh, TFCP2 / RFU, GMCL1 /// GMCL1P1 / Fold change vs veh, GMCL1 /// GMCL1P1 / RFU, AEBP2 / Fold change vs veh, AEBP2 / RFU, SNHG1 /// SNORD22 /// SNORD25 /// SNORD26 /// SNORD27 /// SNORD28 /// SNORD29 /// SNORD31 / Fold change vs veh, SNHG1 /// SNORD22 /// SNORD25 /// SNORD26 /// SNORD27 /// SNORD28 /// SNORD29 /// SNORD31 / Fold change (Aza/veh), C12orf56 (ProbeSet 11735607_a_at) / Fold change (ACY-1035/veh), C12orf56 (ProbeSet 11735607_a_at) / Fold change (Aza/veh), FGFR1OP (ProbeSet 11751329_s_at) / Fold change (ACY-1035/veh), FGFR1OP (ProbeSet 11751329_s_at) / Fold change (Aza/veh), VPS36 (ProbeSet 11739960_a_at) / Fold change (ACY-1035/veh), VPS36 (ProbeSet 11739960_a_at) / RFU SYPL1 (11715823_x_at) / Fold change /veh SYPL1 (11715823_x_at) / RFU IGFBP7 (11715501_s_at) / Fold change /veh IGFBP7 (11715501_s_at) / RFU REEP3 (11722064_at) / Fold change /veh REEP3 (11722064_at) / RFU IGLL1 (11728026_x_at) / Fold change /veh IGLL1 (11728026_x_at): dose or concentration left out as unconfirmed. The following applies: ProbeSet 11741199_a_at; LIST B.

Take `Nc1ccc(-c2cccs2)cc1NC(=O)c1ccc2c(c1)cc(C1CC1)n2CCN1CCOCC1` [ACY-1035]: the “Fold change vs veh, LRRCC1” value is reported as 0.84.

(Values after PMC5218480 (PLoS ONE, 2017).)
